We go through 24 compounds from ChEMBL document CHEMBL1139705, “Synthesis and in vitro pharmacological studies of new C(4)-modified salvinorin A analogues” (Bioorg Med Chem Lett, 2006).

In assay [1] the target is T1, Kappa-type opioid receptor (Homo sapiens, UniProt P41145). The assay is described as follows: Displacement of [3H]diprenorphine binding from human kappa opioid receptor expressed in CHO cells. The class given is cell-based. (Loss of bound radioactivity is the signal in a displacement assay; it reports binding, not function.)
T1 sequence (P41145 whole entry): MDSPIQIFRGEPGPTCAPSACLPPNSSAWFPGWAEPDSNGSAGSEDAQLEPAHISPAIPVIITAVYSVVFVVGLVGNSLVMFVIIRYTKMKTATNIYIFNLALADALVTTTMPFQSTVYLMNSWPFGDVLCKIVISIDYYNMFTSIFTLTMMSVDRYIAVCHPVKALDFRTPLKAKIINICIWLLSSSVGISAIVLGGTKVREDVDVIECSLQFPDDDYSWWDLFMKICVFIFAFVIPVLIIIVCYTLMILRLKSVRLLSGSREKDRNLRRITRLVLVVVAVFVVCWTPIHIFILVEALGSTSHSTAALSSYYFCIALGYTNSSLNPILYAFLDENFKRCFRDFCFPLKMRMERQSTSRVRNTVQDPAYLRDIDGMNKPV
For assay [2], the target named is T1, Kappa-type opioid receptor. In words: Efficacy at human kappa opioid receptor expressed in CHO cells by [35S]GTP-gamma-S binding assay relative to U50,488H. The class given is functional, cell-based.
Assay [3] has as its target T1, Kappa-type opioid receptor. In words: Binding potency at human kappa opioid receptor expressed in CHO cells by [35S]GTPgammaS binding assay. The class given is functional, cell-based.

Where only a bound is given, the exact number is not on record here.

By Ki is commonly meant the equilibrium dissociation constant of an inhibitor or competing ligand from its target. Read a high Ki as a looser hold on the target. With `COCCOCC(=O)OC[C@@H]1C[C@H](OC(C)=O)C(=O)[C@H]2[C@@]1(C)CC[C@@H]1C(=O)O[C@H](c3ccoc3)C[C@]21C`, the Ki in assay [1] was over 1 µM.

On to `COC(=O)[C@@H]1C[C@H](OC(C)=O)C(=O)[C@H]2[C@@]1(C)CC[C@H]1C(=O)O[C@H](c3ccoc3)C[C@]21C`, for which, in assay [2], the Efficacy was determined as 106%.

In assay [1], `CC(=O)O[C@H]1C[C@@H](COC(=O)c2ccc(F)cc2)[C@]2(C)CC[C@H]3C(=O)O[C@H](c4ccoc4)C[C@]3(C)[C@H]2C1=O` had a Ki of over 1 µM.

`CC(=O)O[C@H]1C[C@@H](COCc2ccccc2)[C@]2(C)CC[C@H]3C(=O)O[C@H](c4ccoc4)C[C@]3(C)[C@H]2C1=O`: the Ki in assay [1] is over 1 µM.

Turning to `C=CCOC[C@@H]1C[C@H](OC(C)=O)C(=O)[C@H]2[C@@]1(C)CC[C@H]1C(=O)O[C@H](c3ccoc3)C[C@]21C`, in assay [1], the Ki is over 1 µM.

In assay [1], `CC(=O)O[C@H]1C[C@@H](COC(=O)c2ccc(C)cc2)[C@]2(C)CC[C@H]3C(=O)O[C@H](c4ccoc4)C[C@]3(C)[C@H]2C1=O` had a Ki of over 1 µM.

Consider `CC(=O)O[C@H]1C[C@@H](C=O)[C@]2(C)CC[C@H]3C(=O)O[C@H](c4ccoc4)C[C@]3(C)[C@H]2C1=O`, for which, in assay [1], the Ki was over 1 µM.

As for `CC(=O)O[C@H]1C[C@@H](COC(=O)c2cccc(F)c2)[C@]2(C)CC[C@H]3C(=O)O[C@H](c4ccoc4)C[C@]3(C)[C@H]2C1=O`, in assay [1], the Ki is over 1 µM.

By EC50 is commonly meant the concentration at which the effect is half-maximal. `COCCOCC(=O)OC[C@@H]1C[C@H](OC(C)=O)C(=O)[C@H]2[C@@]1(C)CC[C@H]1C(=O)O[C@H](c3ccoc3)C[C@]21C` registered an EC50 in assay [3] of 0.21 µM. Further, the Efficacy in assay [2] is 98%. This compound also showed a Ki in assay [1] of 0.613 µM.

Compound `CC(=O)O[C@H]1C[C@@H](COC(=O)Cc2ccccc2)[C@]2(C)CC[C@H]3C(=O)O[C@H](c4ccoc4)C[C@]3(C)[C@H]2C1=O` registered a Ki in assay [1] of over 1 µM.

In assay [1], `CC(=O)O[C@H]1C[C@@H](COC(=O)C(C)N(C)C(=O)OCC2c3ccccc3-c3ccccc32)[C@]2(C)CC[C@H]3C(=O)O[C@H](c4ccoc4)C[C@]3(C)[C@H]2C1=O` (stereo not given in full) yielded a Ki of over 1 µM.

Compound `CC(=O)O[C@H]1C[C@@H](COC(=O)C(C)NC(=O)OCC2c3ccccc3-c3ccccc32)[C@]2(C)CC[C@H]3C(=O)O[C@H](c4ccoc4)C[C@]3(C)[C@H]2C1=O` (stereo not given in full) returned a Ki in assay [1] of over 1 µM.

For the compound `CC(=O)O[C@H]1C[C@@H](c2nnnn2CCC#N)[C@]2(C)CC[C@H]3C(=O)O[C@H](c4ccoc4)C[C@]3(C)[C@H]2C1=O`, the Ki in assay [1] is over 1 µM.

In turn, `C/C=C/C(=O)OC[C@@H]1C[C@H](OC(C)=O)C(=O)[C@H]2[C@@]1(C)CC[C@H]1C(=O)O[C@H](c3ccoc3)C[C@]21C` came in with a Ki in assay [1] of over 1 µM.

For `CC(=O)O[C@H]1C[C@@H](COC(=O)C2CC2)[C@]2(C)CC[C@H]3C(=O)O[C@H](c4ccoc4)C[C@]3(C)[C@H]2C1=O`, the 50% effective concentration (EC50) in assay [3] came to 0.358 µM. Further, the Efficacy in assay [2] was found to be 92%. Further, the inhibitory constant (Ki) in assay [1] came out at 0.221 µM.

As to `COC[C@@H]1C[C@H](OC(C)=O)C(=O)[C@H]2[C@@]1(C)CC[C@H]1C(=O)O[C@H](c3ccoc3)C[C@]21C`, in assay [1], the Ki is over 1 µM.

Consider `CC(=O)O[C@H]1C[C@@H](CO)[C@]2(C)CC[C@H]3C(=O)O[C@H](c4ccoc4)C[C@]3(C)[C@H]2C1=O`, for which the EC50 in assay [3] was 0.0207 µM. Further, in assay [2], the Efficacy was found to be 107%. The compound also returned a Ki in assay [1] of 0.0434 µM.

In turn, `CC(=O)OC[C@@H]1C[C@H](OC(C)=O)C(=O)[C@H]2[C@@]1(C)CC[C@H]1C(=O)O[C@H](c3ccoc3)C[C@]21C` showed a Ki in assay [1] of over 1 µM.

Compound `CC(=O)O[C@H]1C[C@@H](COC(=O)CNC(=O)OCC2c3ccccc3-c3ccccc32)[C@]2(C)CC[C@H]3C(=O)O[C@H](c4ccoc4)C[C@]3(C)[C@H]2C1=O` had a Ki in assay [1] of over 1 µM.

On to `CC(=O)O[C@H]1C[C@@H](COC(=O)C(NC(=O)OCC2c3ccccc3-c3ccccc32)c2ccccc2)[C@]2(C)CC[C@H]3C(=O)O[C@H](c4ccoc4)C[C@]3(C)[C@H]2C1=O` (stereo not given in full), for which the Ki in assay [1] is over 1 µM.

With `CCOC[C@@H]1C[C@H](OC(C)=O)C(=O)[C@H]2[C@@]1(C)CC[C@H]1C(=O)O[C@H](c3ccoc3)C[C@]21C`, the Ki in assay [1] was over 1 µM.

`C#CCC(=O)OC[C@@H]1C[C@H](OC(C)=O)C(=O)[C@H]2[C@@]1(C)CC[C@H]1C(=O)O[C@H](c3ccoc3)C[C@]21C`: the Ki in assay [1] is over 1 µM.

As for `CC(=O)O[C@H]1C[C@@H](COC(=O)c2ccc(Br)cc2)[C@]2(C)CC[C@H]3C(=O)O[C@H](c4ccoc4)C[C@]3(C)[C@H]2C1=O`, in assay [1], the Ki is over 1 µM.

`CC(=O)O[C@H]1C[C@@H](C(=O)O)[C@]2(C)CC[C@H]3C(=O)O[C@H](c4ccoc4)C[C@]3(C)[C@H]2C1=O` yielded a Ki in assay [1] of over 1 µM.
